Assay results as given in ChEMBL document CHEMBL1130864, “Potent and efficacious thienylamidine-incorporated thrombin inhibitors” (Bioorg Med Chem Lett, 1998).

Legend:
[1] = biological target: Prothrombin (Homo sapiens, UniProt P00734); test: Compound was evaluated for its inhibitory activity against human thrombin
[2] = biological target: T1, Serine protease 1 (Bos taurus, UniProt P00760); test: Compound was evaluated for its inhibitory activity against bovine trypsin
T1 sequence (P00760 whole entry): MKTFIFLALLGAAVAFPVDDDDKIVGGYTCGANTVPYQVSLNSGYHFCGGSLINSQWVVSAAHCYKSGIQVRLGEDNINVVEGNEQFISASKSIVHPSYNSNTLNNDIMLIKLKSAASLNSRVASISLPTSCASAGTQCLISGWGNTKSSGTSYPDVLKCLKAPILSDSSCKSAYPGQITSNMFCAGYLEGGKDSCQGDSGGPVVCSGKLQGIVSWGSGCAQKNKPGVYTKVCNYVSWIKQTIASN

Row | Structure (SMILES) | Ki [1] | Ki [2]
1 | COc1ccc2cc(S(=O)(=O)N[C@@H](Cc3ccc(C(=N)N)s3)C(=O)N(C)C3CCCC3)ccc2c1 | 0.49 nM | 134 nM
2 | CN(C(=O)[C@H](Cc1ccc(C(=N)N)s1)NS(=O)(=O)c1ccc2ccccc2c1)C1CCCC1 | 3 nM | 153 nM
3 | CCCc1ccc(S(=O)(=O)N[C@@H](Cc2ccc(C(=N)N)cc2)C(=O)N(C)C2CCCC2)cc1 | 0.84 nM | 2440 nM
4 | CN(C(=O)[C@H](Cc1ccc(C(=N)NN)s1)NS(=O)(=O)c1ccc2ccccc2c1)C1CCCC1 | 91 nM | –
5 | CCCc1ccc(S(=O)(=O)N[C@@H](Cc2ccc(C(=N)N)s2)C(=O)N(C)C2CCCC2)cc1 | 0.6 nM | 150 nM
6 | CN(C(=O)[C@H](Cc1ccc(C(=N)N)cc1)NS(=O)(=O)c1ccc2ccccc2c1)C1CCCC1 | 6.8 nM | 16200 nM
